The text below walks through data of EP3572468B1, “CYANINE DYES AND THEIR USAGE FOR IN VIVO STAINING OF MICROORGANISMS” (PHILIPPS-UNIVERSITÄT MARBURG, priority 2018, dated 2019).

Data set [1] in a line: Excitation and emission spectra. Format: physicochemical. The conditions noted are these: aqueous solution; 10 µM in 10 mM Tris pH 7.6 and 50 mM KCI. The method, then:
Fluorescence measurements and tritations were performed on a Jasco FP-6500 spectrofluorometer equipped with a Thermo Haake WKL 26 water recirculator at 20°C. Unless otherwise noted, a 1400 µL fluorescence cuvette of HellmaAnalytics (104F-QS) was used and the measurements were performed with the following settings: increment: 1.0 nm; integration time: 0.2 s; speed: 500 nm/min; sensitivity: medium; excitation slit width: 3 nm; emission slit width: 3 nm; excitation wavelength 610 nm. The emission spectra were recorded from 625 to 750 nm at 20°C. From all spectra, the corresponding background signal was substracted. The used hairpin double-stranded DNAs dsDNAhAT and dsDNAhGC had the sequences depicted in Table. 1. Table 1: Binding sites and sequences of DNA hairpins, which were used for fluorescence titrations experiments.
For each cyanine dye derivative: 6-AzTO-3, 6-TramTO-3 and 6-NH2TO-3, the excitation and emission spectra of a 10 µM solution of the corresponding compound in 1 mL of 10 mM Tris pH 7.6 and 50 mM KCI were measured. The excitation spectra were recorded at an emission of 670 nm in a rage from 500 - 660 nm (slit 5/10 nm), while the emission spectra were measured at an excitation of 590 nm in a range from 600 - 750 nm (slit 5/10 nm). (cf. Fig. 13)

For data set [2], the system named is Escherichia coli (E. coli) NEB5α. Kind of data set: Bacteria culture and staining: growth and FACS labeling of E. coli. The class given is cell-based. The method, then: Escherichia coli (E. coli) NEB5α (New England Biolabs) and antibiotic-resistant and -sensitive Klebsiella pneumoniae (K. pneumoniae) were cultured in Luria-Bertani (LB) solid medium (LB-Agar) overnight at 37°C. The source of the K. pneumoniae strands is of no relevance to the invention. The invention may be applied to all types of microorganisms (bacteria, viri, fungi etc.) or other cells, either contained within a sample or isolated from a sample. For staining, growth curve analysis and replating experiments bacteria were suspended in LB liquid medium at an OD600 nm of 1.0 and 800 µL were transferred into a culture tube containing 7.2 mL of LB liquid medium supplemented with DMSO or candidate dyes (2.5 µM) final concentration). Density of bacterial cultures was measured using an Ultrospec 10 Cell Density Meter with 600 nm LED source (Amersham Biosciences). For bacterial re-plating experiments bacteria were sampled at OD600 nm = 2.0 and 5 µL of indicated dilutions in LB-medium were spotted onto LB-agar plates (Fig. 5) or 100 µL were plated onto LB-agar plates followed by incubation at 37°C until colonies became visible.
(§1) Bacteria and macrophages were washed with PBS prior to flow cytometry and analysed using a Guava easyCyte flow cytometer (Millipore). FCS3.0 files were analysed using Flowing Software (http://flowingsoftware.btk.fi/). Cells were first gated in the forward- / side-scatter plot to exclude debries, followed by quadrant gating in plots using the fluorescence channels as shown above. For discrimination of live/dead cell discrimination cells in PBS were supplemented with 0.4 µL/mL propidium-iodide (5 mg/ml solution) followed by 5 min incubation on ice. Propidium iodide signal was recorded in the yellow channel.

Data set [3] is described as follows: Fluorescence quantum yield, dye alone. As to conditions: dye alone, without dsDNACT; 10 mM Tris pH 7.6 and 50 mM KCI, 25°C; reference dye Alexa Fluor 647. Format: physicochemical. The method, then: Fluorescence intensity values for the quantum yields were determined on an ISS PC1 spectrofluorometer with an ISS 11650 lamp connected to an ISS Simpson model 109 and an ISS 80011 photomulitplier connected to a MGW Lauda K2R D and an Amherst Scientific Corp. 7600F for cooling. A VWR Refrigerated Circ 1160S was connected for the cooling of the cuvette chamber. It was measured in a 1400 µL fluorescence cuvette of HellmaAnalytics (104F-QS) at 25°C using the following settings: increment: 2.0 nm; integration time: 1.0 s; excitation slit width: 0.25 mm; emission slit width: 0.5 mm; excitation wavelength 590 nm. The emission spectra were recorded from 610 to 750 nm. From all spectra the corresponding background signal was substracted. Absorbance values were measured on a Jasco V-650 UV-Vis Spectrophotometer equipped with a Jasco PAC-743 temperature controlled cell holder and a Julabo F250 cooling system. UV-Vis titration measurements were performed in a 1400 µL quarz cuvette with a pathlength of 1 cm at 25°C using the following settings: increment: 1.0 nm; bandwidth: 1.0 nm; scanning speed: 1000 nm/min; scanning mode: continuous. From all values, the corresponding background signal was subtracted. The values for the reference compounds were measured in duplicates, the ones for 6-TramTO-3 with and without dsDNACT in triplicates. The quantum yields of 6-TramTO-3 with (30 eq.) and without dsDNACT were determined in 10 mM Tris pH 7.6 and 50 mM KCI. All measurement were following the procedure of Horiba and using the equation E1: ΦX = ΦST ((GradX)/(GradST)) ((((ηX))^2)/(((ηST))^2)) [formula] where Φ = fluorescence quantum yield, η = refractive index of the used solvent, Grad = gradient from the plot of integrated fluorescence intensity vs. absorbance and the subscripts ST and X denote standard and tested sample. […]
Table 3: Determined slopes and corresponding quantum yields for the two reference compounds Alexa Flour® 647 and Atto 655 and for 6-TramTO-3 with and without dsDNACT.

Data set [4] concerns primary human macrophages. The data set is described as follows: Uptake of 6-TramTO-3-labeled bacteria by macrophages (co-culture, FACS). As to conditions: multiplicity of infection of 20. The class given is cell-based. The method, then:
For primary human macrophage cultures buffy coats from blood donations were loaded onto Lymphoprep™ gradient medium (Fresenius Kabi) followed by centrifugation. The peripheral blood mononuclear cell band was isolated from the gradient and monocytes were enriched using CD14 MACS beads (Miltenyi) according to the manufacturer's instructions. To differentiate monocytes into macrophages cells were cultured in 6-well plates (800.000 cells/mL) in 2 mL X-Vivo 15 medium (Lonza) supplemented with 5 % fetal bovine serum (Biochrom) and 15 ng/mL recombinant human GM-CSF (Preprotech). On day 7 macrophages were considered terminally differentiated and treated with stained bacteria. To this end bacteria stained as described above were sampled at an OD600 nm = 2.0 and washed five times with phosphate buffered saline (PBS). After the last wash bacteria were brought to an OD600 nm of 2.0 and 16 µL, equivalent to 16.000.000 bacteria were added to each well to achieve a multiplicity of infection of 20. Culture plates were then centrifuged for 10 min at 250 G and 37°C to establish physical contact between macrophages and bacteria. Subsequently, culture plates were transferred back into a 37°C incubator with CO2 atmosphere for the remainder of the stimulation period.
as §1

Values joined by “and” are separate entries in the source; they are usually repeats but may differ in a detail not shown here. Equal entries are not always repeated. “Also recorded” adds a separate entry of the source.

`CC[n+]1ccc(/C=C/C=C2\Sc3ccccc3N2CCCCCCn2cc(CN)nn2)c2ccccc21.[I-]` [6-TramTO-3, 4-((1E,3Z)-3-(3-(6-(4-(aminomethyl)-1H-1,2,3-triazol-1-yl)hexyl)benzo[d]thiazol-2(3H)-ylidene)prop-1-en-1-yl)-1-ethylquinolin-1-ium iodide]: in data set [1], the “long wavelength maximum of emission” value was found to be 645 nm and the “long wavelength maximum of excitation” value amounted to 633 nm. Further, the “bacterial growth in presence of dye” value in data set [2] (2.5 µM dye in LB medium, OD600 over time, liquid and solid medium) is recorded as “fully compatible with normal bacterial growth; also recorded: grew normally”. For the same compound, the “fluorescent labeling of live bacteria (FACS)” value in data set [2] (2.5 µM dye in culture medium, FACS at mid-exponential growth phase (OD600 = 2.0)) is given as “successfully fluorescently labeled”. Moreover, the “quantum yield (ΦF)” value in data set [3] was 0.005 and 0.0052. Also, the “red-shift of the macrophages (bacterial uptake)” value in data set [4] (macrophages exposed to 6-TramTO-3-labeled E. coli) is on record as ~ 26%. For the same compound, the “macrophages that took up bacteria (red-shifted)” value in data set [4] (macrophages exposed to 6-TramTO-3-labeled antibiotic sensitive Klebsiella strain) is ~ 0.2%. In addition, in data set [4] (macrophages exposed to 6-TramTO-3-labeled antibiotic-resistant Klebsiella strain), the “macrophages that took up bacteria (red-shifted)” value was ~ 4%.
